SMILES strings stand for the structures.

One assay deals with T1, human MC-4R (Homo sapiens, UniProt P32245).
T1 construct: expressed in transfected cells
T1 sequence (P32245 whole entry): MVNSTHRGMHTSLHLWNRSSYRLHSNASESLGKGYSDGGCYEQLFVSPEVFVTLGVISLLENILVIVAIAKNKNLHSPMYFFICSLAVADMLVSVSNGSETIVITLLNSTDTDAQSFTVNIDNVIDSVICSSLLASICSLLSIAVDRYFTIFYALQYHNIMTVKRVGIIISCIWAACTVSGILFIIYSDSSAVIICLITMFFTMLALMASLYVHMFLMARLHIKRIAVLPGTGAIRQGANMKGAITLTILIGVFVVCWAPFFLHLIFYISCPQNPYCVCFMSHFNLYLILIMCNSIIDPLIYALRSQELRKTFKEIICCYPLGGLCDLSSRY
Description: Biological Assay: inhibition of AgRP functional interaction with MC-4R in presence of αMSH (cAMP production). Type of assay: cell-based. Particulars: Average EC50 (nM) in Biological Assay, HEK293 cells expressing human MC-4R, AgRP83-132 and αMSH present. As for the experimental part: The following method is illustrative of techniques that may be employed to measure the ability of the compounds of Formula (I) to functionally modulate the binding of AgRP to melanocortin receptors. In particular, the assay below measures the ability of compounds of Formula (I) or pharmaceutically acceptable salts thereof to functionally modulate the binding of AgRP to MC-4R in the presence of a MC-4R agonist, such as alpha-MSH.
HEK293 cells stably expressing human MC-4R receptors were grown in high glucose Dulbecco's Modified Eagle Medium (DMEM) with 4500 mg glucose/L, L-glutamine, NaHCO3, pyrdoxin HCl, 10 mM HEPES (pH 7.4), 0.1 mM NEAA (non-essential amino acid medium) (GIBCO Cat#11140-050), 10% fetal bovine serum and 700 μg/mL G418. Cells were grown in T-225 flasks at 37° C. with CO2 and humidity control.
On the day of assay, cells were washed twice with phosphate buffered saline without calcium and magnesium (PBS) and incubated with 10 mL PBS until the cells were detached from the flask. The detached cells were centrifuged at 240 g for 5 min. The cell pellet was re-suspended in assay buffer (Earle's balanced salt solution (Sigma E3024) supplemented with 10 mM HEPES, pH 7.4, 0.5 mM IBMX and protease inhibitor cocktail (Roche, 1 complete tablet/75 mL buffer)).
The inhibitory or enhancement effect of compounds on AgRP activity was measured in a multi-component assay containing testing compounds, AgRP83-132 (human, Phoenix Pharma, cat no. 003-53), cells expressing MC-4R, and αMSH (Bachem, cat no. H-1075). Test compounds, AgRP and αMSH were diluted with assay buffer. Test compounds and AgRP were mixed to 4 times of the final concentration and incubated at room temperature for 30 min. Five μL of testing compound/AgRP solution followed with 10 μL of cells (20,000 cells/well) were added to each well of a 384-well reaction plate before 5 μL of αMSH was added. Cells were stimulated with αMSH for an additional 30 min at 37° C.
Stimulation of cells was stopped by adding a lysis buffer and cells were lysed. The intracellular concentration of cAMP may be measured by various techniques known to one of skill in the art including, but not limited to, fluorescence polarization (FP) and time-resolved fluorescence (TRF).
The inhibition was shown by an increase in MC-4R mediated cAMP production.
(In general: cAMP levels reflect the balance of adenylyl cyclase and phosphodiesterase activity.)
For orientation: EC50 means the midpoint of the concentration-response curve. As to `CCc1ccc(CN(CCC(=O)O)c2nc(C3CCC(CC)CC3)cs2)s1` (centres unmarked) [Example 20, 3-[[4-(4-Ethyl-cyclohexyl)-thiazol-2-yl]-(5-ethyl-thiophen-2-ylmethyl)-amino]-propionic acid], the EC50 came to 389 nM.

Staying with this assay, now noted: HEK293 cells expressing human MC-4R, AgRP83-132 and αMSH present; read-out: Average EC50 (nM) in Biological Assay.
Regarding `Cc1cc(CN(CCC(=O)O)c2nc(C3CC4CCCCC4C3)cs2)c(C)s1` (centres unmarked) [Example 59, 3-{(2,5-Dimethyl-thiophen-3-ylmethyl)-[4-(octahydro-inden-2-yl)-thiazol-2-yl]-amino}-propionic acid], the EC50 turned out to be 160 nM.
On the same count and under the same terms, the value for `Cc1ccc(CN(CCC(=O)O)c2nc(C3CC(C)(C)CC(C)(C)C3)cs2)s1` [Example 53, 3-{(5-methyl-thiophen-2-ylmethyl)-[4-(3,3,5,5-tetramethyl-cyclohexyl)-thiazol-2-yl]-amino}-propionic acid] was 307 nM; that for `CCC1(c2csc(N(CCC(=O)O)Cc3ccc(C)s3)n2)CCC(C)CC1` (centres unmarked) [Example 45, Sodium; 3-[[4-(1-ethyl-4-methyl-cyclohexyl)-thiazol-2-yl]-(5-methyl-thiophen-2-ylmethyl)-amino]-propionate] was 159 nM.
Still for that read-out and setting: for `CCc1ccc(CN(CCC(=O)O)c2nc(C3CCC(OC)CC3)cs2)s1` (centres unmarked) [Example 33, 3-{(5-Ethyl-thiophen-2-ylmethyl)-[4-(4-methoxy-cyclohexyl)-thiazol-2-yl]-amino}-propionic acid] the value was 1230 nM; for `CCc1ccc(CN(CCC(=O)O)c2nc(C3Cc4ccccc4C3)cs2)s1` [Example 11, 3-[(5-Ethyl-thiophen-2-ylmethyl)-(4-indan-2-yl-thiazol-2-yl)-amino]-propionic acid], 252 nM; for `CC(C)(C)C1CCC(c2csc(N(CCC(=O)O)Cc3ccc(S(C)(=O)=O)s3)n2)CC1` (centres unmarked) [Example 36, 3-[[4-(4-tert-Butyl-cyclohexyl)-thiazol-2-yl]-(5-methanesulfonyl-thiophen-2-ylmethyl)-amino]-propionic acid], 267 nM.
The same measure, in the same setting: for `Cc1ccc(CN(CCC(=O)O)c2nc(C3CCC4(CCCCC4)CC3)cs2)s1` [Example 63, 3-[(5-methyl-thiophen-2-ylmethyl)-(4-spiro[5.5]undec-3-yl-thiazol-2-yl)-amino]-propionic acid] the value was 283 nM.
For the compound `Cc1ccc(CN(CCC(=O)O)c2nc(C3CCC(C)(C)CC3)c(C)s2)s1` [Example 56, Sodium; 3-[[4-(4,4-dimethyl-cyclohexyl)-5-methyl-thiazol-2-yl]-(5-methyl-thiophen-2-ylmethyl)-amino]-propionate], the EC50 worked out at 217 nM.
Same read-out and setting: the value for `Cc1ccc(CN(CCC(=O)O)c2nc(C3CC4CCCCC4C3)cs2)s1` (centres unmarked) [Example 57, 3-{(5-Methyl-thiophen-2-ylmethyl)-[4-(octahydro-inden-2-yl)-thiazol-2-yl]-amino}-propionic acid] was 187 nM.
Turning to `Cc1ccc(CN(CCC(=O)O)c2nc(C3(C)CCC(c4ccccc4)CC3)cs2)s1` (centres unmarked) [Example 51, 3-[[4-(1-Methyl-4-phenyl-cyclohexyl)-thiazol-2-yl]-(5-methyl-thiophen-2-ylmethyl)-amino]-propionic acid], the EC50 stood at 143 nM.
Same read-out and setting: for `Cc1ccc(CN(CCC(=O)O)c2nc(C3CCC(C(F)(F)F)CC3)cs2)s1` (centres unmarked) [Example 18, 3-{(5-Methyl-thiophen-2-ylmethyl)-[4-(4-trifluoromethyl-cyclohexyl)-thiazol-2-yl]-amino}-propionic acid] the value was 416 nM; for `CCc1ccc(CN(CCC(=O)O)c2nc(C3(C)CCC(C(C)C)CC3)cs2)s1` (centres unmarked) [Example 49, Sodium; 3-{(5-ethyl-thiophen-2-ylmethyl)-[4-(4-isopropyl-1-methyl-cyclohexyl)-thiazol-2-yl]-amino}-propionate], 102 nM; for `Cc1ccc(CN(CCC(=O)O)c2nc(C3(c4ccc(F)cc4)CCCC3)cs2)s1` [Example 34, Sodium; 3-[{4-[1-(4-fluoro-phenyl)-cyclopentyl]-thiazol-2-yl}-(5-methyl-thiophen-2-ylmethyl)-amino]-propionate], 269 nM.

For the origin of these results see patent publication US8563742B2, “Substituted aminothiazole derivatives, pharmaceutical compositions, and methods of use” (High Point Pharmaceuticals, LLC, priority 2008, dated 2013).
